Data published in the supplement of paper PMC10307832.

What was measured:
Experiment in all cases: relative viability (nuclei count vs DMSO), 5 days (fraction); higher = more cells survive
CX-5461 + Bortezomib = compound: Cc1cnc(CNC(=O)c2c(=O)c3ccc(N4CCCN(C)CC4)nc3n3c2sc2ccccc23)cn1 [CX-5461] + CC(C)C[C@H](NC(=O)[C@H](Cc1ccccc1)NC(=O)c1cnccn1)B(O)O [Bortezomib] (partner 0.002 µM)
Summary of the method: (§1)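 A single step with final 0.05% Triton X-100, 1% formaldehyde and 1 ug/ml Hoechst fixed the cells and stained nuclei 5 days after treatment. Lung cancer cell lines in 1536-well plates had been treated by pin tool the day after seeding with one drug alone or a fixed anchor-drug dose plus five library-drug doses (not always all listed) in √10 steps, and nuclei were counted on 4× images. Relative viability is the ratio of nuclei in treated wells to nuclei in vehicle wells, taken as the median of duplicate plates.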

CX-5461 + Tozasertib = compound: Cc1cnc(CNC(=O)c2c(=O)c3ccc(N4CCCN(C)CC4)nc3n3c2sc2ccccc23)cn1 [CX-5461] + Cc1cc(Nc2cc(N3CCN(C)CC3)nc(Sc3ccc(NC(=O)C4CC4)cc3)n2)n[nH]1 [Tozasertib] (partner 0.1 µM)
Summary of the method: as §1

CX-5461 + Olaparib = compound: Cc1cnc(CNC(=O)c2c(=O)c3ccc(N4CCCN(C)CC4)nc3n3c2sc2ccccc23)cn1 [CX-5461] + O=C(c1cc(Cc2n[nH]c(=O)c3ccccc23)ccc1F)N1CCN(C(=O)C2CC2)CC1 [Olaparib] (partner 8 µM)
Summary of the method: as §1

CX-5461 + Lapatinib = compound: Cc1cnc(CNC(=O)c2c(=O)c3ccc(N4CCCN(C)CC4)nc3n3c2sc2ccccc23)cn1 [CX-5461] + CS(=O)(=O)CCNCc1ccc(-c2ccc3ncnc(Nc4ccc(OCc5cccc(F)c5)c(Cl)c4)c3c2)o1 [Lapatinib] (partner 2 µM)
Summary of the method: as §1

| Cell Line | relative viability (CX-5461 + Bortezomib; first compound 0.01 µM) | relative viability (CX-5461 + Bortezomib; first compound 0.03162 µM) | relative viability (CX-5461 + Bortezomib; first compound 0.1 µM) | relative viability (CX-5461 + Bortezomib; first compound 0.3162 µM) | relative viability (CX-5461 + Bortezomib; first compound 1 µM) | relative viability (CX-5461 + Tozasertib; first compound 0.01 µM) | relative viability (CX-5461 + Tozasertib; first compound 0.03162 µM) | relative viability (CX-5461 + Tozasertib; first compound 0.1 µM) | relative viability (CX-5461 + Tozasertib; first compound 0.3162 µM) | relative viability (CX-5461 + Tozasertib; first compound 1 µM) | relative viability (CX-5461 + Olaparib; first compound 0.01 µM) | relative viability (CX-5461 + Olaparib; first compound 0.03162 µM) | relative viability (CX-5461 + Olaparib; first compound 0.1 µM) | relative viability (CX-5461 + Olaparib; first compound 0.3162 µM) | relative viability (CX-5461 + Olaparib; first compound 1 µM) | relative viability (CX-5461 + Lapatinib; first compound 0.01 µM) | relative viability (CX-5461 + Lapatinib; first compound 0.03162 µM) | relative viability (CX-5461 + Lapatinib; first compound 0.1 µM) | relative viability (CX-5461 + Lapatinib; first compound 0.3162 µM) | relative viability (CX-5461 + Lapatinib; first compound 1 µM) |
| --- | --- | --- | --- | --- | --- | --- | --- | --- | --- | --- | --- | --- | --- | --- | --- | --- | --- | --- | --- | --- |
| NCI-H1975 | 0.361 | 0.357 | 0.357 | 0.358 | 0.154 | 0.744 | 0.815 | 0.577 | 0.744 | 0.211 | 0.898 | 0.822 | 0.68 | 0.853 | 0.558 | 1.14 | 0.921 | 0.855 | 0.927 | 0.386 |
| NCI-H1651 | 0.899 | 0.896 | 0.816 | 0.969 | 0.404 | 0.7 | 0.465 | – | 0.505 | 0.106 | 0.188 | 0.175 | 0.191 | 0.163 | 0.159 | – | 0.482 | – | 0.714 | 0.117 |
| LCLC-97TM1 | 0.69 | 0.34 | 0.457 | – | 0.119 | 0.269 | 0.26 | 0.218 | – | 0.208 | 0.313 | 0.503 | 0.466 | 0.333 | 0.298 | 1.17 | 1.02 | 0.871 | – | 0.366 |
| NCI-H727 | 1.03 | 0.812 | 0.596 | 0.718 | 0.662 | 0.529 | 0.666 | 0.57 | 0.633 | 0.593 | 0.713 | 0.704 | 0.762 | 0.837 | 0.763 | 0.862 | 0.997 | 0.682 | 0.729 | 0.631 |
| NCI-H1355 | 1.2 | 1.19 | 1.12 | 1.28 | 0.877 | 0.579 | 0.594 | 0.53 | 0.323 | 0.548 | 0.758 | 0.811 | 0.689 | 0.736 | 0.714 | 1.03 | 0.976 | 1.15 | 0.293 | 0.785 |
| HOP-62 | 0.726 | 0.84 | 0.896 | 0.909 | 0.424 | 0.315 | 0.405 | 0.372 | 0.284 | 0.344 | 0.315 | 0.355 | 0.287 | – | 0.254 | 1.11 | 1.12 | 1.23 | 0.167 | 0.908 |
| NCI-H2085 | 1.04 | 0.999 | 0.871 | 1.01 | 0.677 | 0.734 | 0.849 | 0.785 | 0.752 | 0.798 | 0.772 | 0.783 | 0.845 | 0.787 | 0.736 | 0.806 | 0.718 | 0.667 | 0.324 | 0.615 |
